Test results reported in PubChem BioAssay AID179 (DTP/NCI, 2004).
Active and inactive are the calls of the source.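 How the source made its calls: active means compounds giving half or more protection of infected cells from virus-caused growth loss, again on retest; inactive means the rest.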 Where a SMILES comes first, the peptide text is derived from it.

Tested on: CEM cells HIV-1 protection, formazan growth assay
Experiment: NCI AIDS Antiviral Assay
Conditions: for IC50: measured here: growth of uninfected CEM cells
Procedure, shortened: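 Category rules: moderately active means at least 50% protection on retest, and confirmed active means 100% protection reproducibly. The underlying data came from a formazan growth assay in HIV-1-infected CEM cells.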

Compound | EC50 [µM] | IC50 [µM] | outcome
CCCN(CCC)C(=S)N/N=C(/C)c1ccccc1O | > 200 | 15.8 | –
Clc1ccc2c(c1)-c1c3c(nn1-c1ccccc1)-c1ccccc1SC3O2 (stereo unspecified) | > 13.5 | > 13.5 | –
CC1=N/C(=C\c2ccc(F)cc2)C(=O)O1 | > 25.1 | > 25.1 | –
BrC1=C(Br)C2(SCCS2)[C@H]2C[C@@H]1c1ccccc12 | > 200 | 8.71 | –
COC(=O)/C=C\c1ccc2c(c1)CC1(C2)Cc2ccc(/C=C/C(=O)OC)cc2C1 (stereo unspecified) | > 200 | > 200 | –
COc1ccc(CN2COc3c(ccc4cccnc34)C2)cc1 | > 200 | 0.759 | –
CC(=O)Nc1ccc(C(=O)NN2C(=O)CSC2c2ccc([N+](=O)[O-])cc2)cc1 (stereo unspecified) | > 25.1 | > 25.1 | –
c1ccc(-c2ccccc2SSc2ccccc2-c2ccccc2)cc1 | > 200 | 5.37 | –
O=C(c1ccc(Cl)cc1Cl)N(C(=O)N1CCC(c2ccccc2)CC1)c1ccccc1 | > 200 | > 200 | –
CCC1Sc2cc(OC)cc3c2N(CCN3)C1=O (stereo unspecified) | > 200 | 57.5 | –
O=C(/C=C/c1ccc(OCc2cccc(Cl)c2)cc1)NO | > 200 | 25.7 | –
O=c1cc(NNCc2ccccc2)[nH]c(=O)[nH]1 | > 200 | 57.5 | –
CC(C)C1CC(CO)(CNc2cc(Cl)nc(N)n2)C1 (stereo unspecified) | > 20 | 19.5 | –
O=[N+]([O-])c1ccc2[nH]ncc2c1Cl | > 200 | 9.77 | –
CC/C(=N/OC(=O)N(C)C)c1ccccc1 | > 200 | > 200 | –
COc1cc(CNC(=O)CCCCCCCCCCSC#N)ccc1O | > 200 | 27.5 | –
Cn1cc(N)cc1C(=O)Nc1cc(C(=O)Nc2ccc(S(=O)(=O)O)c3cc(S(=O)(=O)O)ccc23)n(C)c1 | 31.6 | 324 | –
COc1ccccc1/C=C1/Sc2scc(CC(=O)Nc3ccccc3)[n+]2C1=O | – | 28.8 | inactive
COc1nc(N)nc2c1n(C)c[n+]2C | > 200 | 141 | –
O=C(C[C@@H]1CCCN2CCCC[C@H]12)N1c2ccccc2Sc2ccc(Cl)cc21 | > 200 | 20.9 | –
NC1=NN(O)C2=CC([N+](=O)[O-])C=CC2=N1 (stereo unspecified) | > 25.1 | 20.4 | –
CC1(Cl)C(=O)NC(=O)N([C@H]2C[C@H](O)[C@@H](CO)O2)C1N=[N+]=[N-] (stereo partly specified) | > 200 | > 200 | –
CCOC(=O)c1cc(=O)n(C)c(=O)n1C | – | – | inactive

Compound | EC50 [µM] | IC50 [µM] | outcome
O=C(O)c1ccc(S(=O)(=O)O)o1 | > 200 | > 200 | –
O=C(Nc1ccc(I)cc1)c1ccccc1[Se][Se]c1ccccc1C(=O)Nc1ccc(I)cc1 | > 4.68 | > 4.68 | –
C[N+](C)(C)CC1CCC(C[N+](C)(C)C)C1=NO (stereo unspecified) | > 501 | > 501 | –
c1ccc2c3c(ccc2c1)CN1CCCCC1C3 (stereo unspecified) | > 676 | 49 | –
O=c1c2sc3ccccc3sc=2c(=O)c2c(Cl)c(Cl)c(Cl)c(Cl)c12 | > 126 | 58.9 | –
O=C1C=C/C(=C/C(O)COC(=O)c2ccccc2)O1 (stereo unspecified) | > 138 | 77.6 | –
CC(C)N(C=C(C#N)C#N)C(C)C | > 200 | > 200 | –
COc1cc2cc(C(=O)N3CC(CCl)c4c3cc(NC(=O)C(C)Nc3c([N+](=O)[O-])cc(C(=O)NCCN(C)C)cc3[N+](=O)[O-])c3ccccc43)[nH]c2c(OC)c1OC (stereo unspecified) | > 0.1 | 0.0575 | –
N#C/C1=C(\C#N)CCC2(C#N)C3C=CC(O3)C2(C#N)CC1 (stereo unspecified) | > 295 | 34.7 | –
Cc1ccnc2c1C(=O)C(=O)C=C2N1CCCCC1 | – | – | inactive
COc1cc(OCc2ccc3nc(OC)c(OC)nc3c2)cc(OC)c1OC | > 200 | > 200 | –
Cn1c2ccccc2c(=NNc2ccccc2C(=O)O)c2ccccc21 | > 200 | 19.5 | –
CCN(CC)c1ccc(NC(=S)NN(C)C)cc1 | > 200 | 52.5 | –
N#CC(C(=O)CCC(=O)C(C#N)c1ccccc1)c1ccccc1 (stereo unspecified) | > 398 | > 398 | –
C=C(CN)CO[Si](C)(C)C(C)(C)C | > 200 | 110 | –
Cc1ccc(S(=O)(=O)N2CCN(C=S)CC2)cc1 | > 91.2 | > 91.2 | –
NC1CS(=O)(=O)CC1O (stereo unspecified) | > 200 | > 200 | –
NC(=S)N/N=C(\C(=O)Nc1cccc([N+](=O)[O-])c1)c1nc2ccc([N+](=O)[O-])cc2[nH]c1=O | > 288 | 95.5 | –
CCCCCCCCCCCCCCCC(=O)OC(CC(=O)O)C[N+](C)(C)C (stereo unspecified) | – | – | inactive
CC(=O)c1c(-c2ccco2)c(C#N)c(=S)n(C2OC(CO)C(O)C(O)C2O)c1C (stereo unspecified) | > 200 | 87.1 | –
CN(C)CCCNc1ccnc2cc([N+](=O)[O-])ccc12 | > 200 | 12.9 | –
O=S(O)c1cc(Cl)cc(Cl)c1O | – | – | inactive
CC1CN=C(N(C)C(=O)Nc2ccc(Cl)cc2)S1 (stereo unspecified) | – | – | inactive

Compound | EC50 [µM] | IC50 [µM] | outcome
Cc1nc(N)c(N2CCN(S(N)(=O)=O)CC2)c(=O)[nH]1 | > 200 | > 200 | –
Oc1ccc(O)c(-n2cccn2)c1-n1cccn1 | > 110 | 42.7 | –
O=c1c2cccnc2ncn1CCCN1CCCC1 | – | – | inactive
CONC(C)=O | > 200 | > 200 | –
O=C1Oc2ccccc2C(=O)/C1=C/N1C(=O)/C(=C/c2ccc([N+](=O)[O-])cc2)SC1=S | > 200 | 1.1 | –
C[N+]1(CCO)C2CCC1CC(O)C2 (stereo unspecified) | > 200 | > 200 | –
N=C([Se])c1ncn(C2OC(CO)C(O)C2O)c1N (stereo unspecified) | > 389 | 30.2 | –
O=C1OCc2cnccc21 | > 1860 | > 1860 | –
Cc1c2ncccc2cc2oc3ccccc3c(=O)c12 | > 200 | 10 | –
CN1C(=O)CN=C(c2ccc[nH]2)c2cc(Cl)ccc21 (tested in a mixture with another compound) | 11.2 | 79.4 | –
O=[N+]([O-])/C(Cl)=C(\NCCO)C(Cl)=C(Cl)Cl | > 200 | 63.1 | –
O=c1c2ccccc2c(=O)n2n1-c1cccc(c1)CSSCc1cccc-2c1 | – | – | inactive
CCC1OC2C(CC=C(C)C)=C3OC(C)(O)C(C)(CC)C(=O)C3=C3OC(=O)C=C1C32 (stereo unspecified) | > 200 | 33.1 | –
CC1(C)CN=C(Nc2ccc(Cl)cc2)S1 | – | – | inactive
CCN(CC)CC(O)CNc1c2ccc([N+](=O)[O-])cc2nc2cc(OC)c(OC)cc12 (stereo unspecified) | – | – | inactive
CC(C)(C)O/C=C1/C(=O)OC2C[C@@H](O[Si](C)(C)C(C)(C)C)CC12 (stereo partly specified) | > 200 | 120 | –
CCC(C)C(NC(=O)C(N)CCCCN)C(=O)NC(CCC(=O)O)C(=O)NC(CO)C(=O)NC(C(=O)O)C(C)O (stereo unspecified) (H-KIEST-OH; configuration not given here) | – | – | inactive
COC(=O)c1c2c(cc3c1CC1(Cc4ccc(C(C)=O)cc4C1)C3)CCC2 (stereo unspecified) | > 200 | > 200 | –
CCCNC(=O)Sc1ccccc1C(=O)NCCC(N)=O | > 2.63 | – | –
COC(=O)CC=C(c1cc(Cl)c(OC)c(C(=O)OC)c1)c1cc(Cl)c(OC)c(C(=O)OC)c1 | > 200 | 41.7 | –
O=C(Cc1nc2ccccc2s1)C(=O)Nc1cccc(C(F)(F)F)c1 | – | – | inactive
Cc1n[nH]c(=O)n1-n1cccc1 | > 200 | > 200 | –
COc1cc(C(c2ccc3c(c2)OCO3)C2SCCCS2)cc(OC)c1OC (stereo unspecified) | > 200 | 0.871 | –

Compound | EC50 [µM] | IC50 [µM] | outcome
O=P1(c2ccccc2)C=C(c2ccccc2)NC(c2ccccc2)=C1 | – | – | inactive
C=C1C(=O)OC2CC1(C)OCC2[C@H]1CCC2C3CC=C4CC=CC(=O)[C@]4(C)C3CC[C@@]21C (stereo partly specified) | > 155 | 3.31 | –
CC(C)c1cccc(C(C)C)c1NC1=CC(=O)C(=O)c2ccccc21 | > 30.2 | > 30.2 | –
c1ccc(-c2nn3c(-c4ccccc4)nnc3o2)cc1 | > 200 | 40.7 | –
O=C1C=C(C23CC4CC(CC(C4)C2)C3)Nc2ccccc2N1 | > 200 | – | –
CC1(C)C(=O)C(C)(C)C1O | > 1780 | > 1780 | –
O=C(CCCN1CCC2(CC1)C(=O)NCN2c1ccc(F)cc1)c1ccc(F)cc1 | > 200 | > 200 | –
COc1ccccc1C(C1=C(O)COC1=O)c1cc2c(cc1OC(C)=O)OCO2 (stereo unspecified) | > 200 | > 200 | –
C[n+]1c2ccccc2c(NC(CCCN=C(N)N)C(=O)O)c2ccccc21 (stereo unspecified) | – | – | inactive
COc1ccc2c(c1)-c1c(c3ccccc3n1CCN1CCCCC1)CC2 | > 100 | 30.9 | –
CN(CCN(C)C(=O)CCn1cc(F)c(=O)[nH]c1=O)C(=O)CCn1cc(F)c(=O)[nH]c1=O | > 57.5 | > 57.5 | –
N#CCCN(CCC#N)c1ccc(/C=C2\N=C(c3ccccc3)N(c3ccc(Cl)cc3)C2=O)cc1 | > 200 | > 200 | –
COc1ccc(/C=C2\S/C(=N/Nc3nc(-c4ccccc4)cs3)NC2=O)cc1OC | > 200 | 31.6 | –
COc1ccc(OCC(=O)O)c2c1CCC(C)C2=O (stereo unspecified) | – | – | inactive
COC(=O)NCC(OCc1cc2c(cc1I)OCO2)C1=CCCCC1 (stereo unspecified) | > 29.5 | > 29.5 | –
O=C(CCCC[n+]1ccccc1)Sc1ccccc1C(=O)Nc1ccc(S(=O)(=O)Nc2nccs2)cc1 | 13.5 | 91.2 | –
CCOC(=O)c1ccc(N=Cc2ccc(N(CCC#N)S(=O)(=O)c3ccccc3)cc2C)cc1 | > 75.9 | > 75.9 | –
O=C1C=C(O)C(=Cc2c(O)cc(O)cc2O)C(O)=C1 | – | – | inactive
CCOC(=O)CC1(O)C(=O)N(Cc2ccccc2)c2ccccc21 (stereo unspecified) | > 200 | > 200 | –
CCOC(=O)c1ccc(N/N=[N+](/[O-])CC2OC(n3ccc(=O)[nH]c3=O)C(O[Si](C)(C)C(C)(C)C)C2O[Si](C)(C)C(C)(C)C)cc1 (stereo unspecified) | > 200 | 21.4 | –
CCCN(CCC)C(=O)c1c(Cl)c2cccnc2n2c(C)cnc12 | > 200 | 70.8 | –
COc1cc2c(c(OC)c1OC)CCc1cnoc1-2 | > 257 | > 100 | –
Cc1nn(C)c2c1NC(=O)CS2 | – | – | inactive
